The subject of one experiment is P-selectin. As to the kind of experiment: P-selectin translocation (Weibel-Palade body exocytosis) in irradiated HUVEC with enzyme inhibitors, immunofluorescence. Format: cell-based, human. The settings on record: inhibitor added prior to irradiation, 10 Gy. The text has this:
(§1) The initial step in discerning the potential role of various signal transduction pathways is to add enzyme inhibitors prior to x-radiation. Exocytosis of Weibel-Palade bodies is an active process requiring the translocation of cytoplasmic granules. Previous studies have shown that intracellular signal transduction required for Weibel Palade body translocation involves influx of calcium and protein kinase C activation (calcium, PKC). To determine whether these signaling pathways participate in radiation-mediated Weibel-Palade body exocytosis, the inventors added the intracellular calcium chelator BAPTA and the protein kinase C inhibitor, calphostin, to HUVEC cells prior to irradiation. Cells were then treated with 10 Gy and immunofluorescence was used to localize P-selectin. […] Conversely, the tyrosin kinase inhibitor, herbimycin A, had no effect on Weibel-Palade exocytosis. To determine whether calcium chelation and protein kinase inhibition prevent all molecular responses to ionizing radiation, the inventors' added BAPTA and calphostin prior to radiation-induction of ICAM-1 expression. BAPTA and calphostin had no effect on x-ray induction of ICAM-1. However, herbimycin A and the NFkB inhibitor ALLN attenuated x-ray induction of ICAM-1.

The next experiment concerns von Willebrand Factor. The settings on record: Vischer et al., 1995; cited from earlier work.
Another experiment has as its system ICAM-1. As to the kind of experiment: X-ray induction of ICAM-1 expression with enzyme inhibitors. Particulars: inhibitor added prior to irradiation. The class given is cell-based, human.
From the text: as §1

Data on one compound can be found in patent EP0986401B1, “P-SELECTIN TRANSLOCATION TO VASCULAR EPITHELIAL LUMEN BY IONIZING RADIATION” (ARCH DEVELOPMENT CORPORATION, priority 1997, dated 1998).

Regarding `O=C(O)CN(CC(=O)O)c1ccccc1OCCOc1ccccc1N(CC(=O)O)CC(=O)O` [BAPTA], in the experiment with P-selectin, the “P-selectin translocation to the cell membrane (Weibel-Palade exocytosis)” value was “attenuation”. Also, the “superoxide induced von Willebrand Factor exocytosis” value with von Willebrand Factor was “inhibited”. Besides, in the experiment on ICAM-1, the “x-ray induction of ICAM-1” value is listed as “no effect”.
